# Reference: patent EP4781984A1 (Beyang Therapeutics Co., Ltd., priority 2023, dated 2025)
# Key:
# [1] = target: T1, VEGFR1 (Homo sapiens, UniProt P17948); experiment: Kinase inhibitory activity, Mobility Shift Assay (VEGFR1); type: biochemical
# T1 construct: purchased Invitrogen PR6731B
# Protocol: (§1) Assay for Inhibitory Activity of Compounds Against VEGFR and EGFR Kinases
# (§2) This assay directly monitors the inhibitory activity of compounds on kinase phosphorylation by measuring non-phosphorylated and phosphorylated substrates in the kinase reaction using Mobility Shift Assays/IMAP™ analysis. Table 2. Reagents and Instruments
# (§3) Kinase and DTT were added to 1X kinase buffer to form a 2.5X kinase solution; 10 µL of the 2.5X kinase solution was transferred to a 384-well reaction plate, and 1X kinase buffer was added to the negative control wells. The plate was incubated at room temperature for 10 minutes; FAM-labeled peptide, MgCl2, ATP, and other reagents were added to 1X kinase buffer to form a 2.5X substrate solution; 10 µL of the above 2.5X substrate solution was transferred to the 384-well reaction plate; the plate was incubated at 28°C for varying times, and then 25 µL of stop solution was added to the 384-well reaction plate to terminate the reaction. Conversion rate data were read on a CaliperEZ Reader II. […] IC50 values were fitted using XLFit excel add-in version 5.4.0.8. Y = Bottom + (Top−Bottom)/(1 + […]) [formula]
# (§4) X is the log value of compound concentration, Y is the inhibition rate (% inhibition).
# [2] = target: T2, VEGFR3 (Homo sapiens, UniProt P35916); experiment: Kinase inhibitory activity, Mobility Shift Assay (VEGFR3); type: biochemical
# T2 construct: purchased Invitrogen PV4129
# Protocol: as §1, §2, §3, §4
# [3] = target: T3, VEGFR2 autophosphorylation (pVEGFR2) in HUVEC cells (Homo sapiens, UniProt P35968); experiment: Inhibition of VEGF-induced VEGFR2 phosphorylation in HUVEC cells (ELISA); type: cell-based; details: 50 ng/mL human VEGF, compound 1 hour
# T3 construct: endogenous in cells; host or cells: HUVEC
# Text: Assay for Compound Inhibition of VEGFR2 Phosphorylation in HUVEC Cells
# VEGF is a potent growth factor that promotes angiogenesis and vascular permeability. Vascular endothelial growth factor receptor 2 (VEGFR2) is the primary receptor for VEGF-induced endothelial cell signaling. Upon ligand binding, VEGFR2 undergoes autophosphorylation and is activated. The primary function from VEGFR2 signaling is to induce blood vessel formation during development and after tissue injury, and to bypass blocked vessels. Pathologically, VEGF and VEGFR2 are involved in tumor angiogenesis and vascular leakage. They are considered major players in many different cancers and ocular diseases accompanied by pathological neovascularization. This assay uses ELISA to measure the compound's ability to inhibit VEGF-induced VEGFR2 autophosphorylation (pVEGFR2) in HUVEC cells. Table 7. Reagents and Instruments
# Before cell seeding, cells reached 60%-80% confluency in cell culture flasks. The cell suspension was diluted with pre-warmed complete medium to 4.5×10^6 cells/mL. 80 microliters of cell suspension was added to all wells of a 96-well cell plate (Corning-3599); incubated overnight at 37°C and 5% CO2. Compound powder was dissolved in DMSO to 10 mM and stored in a nitrogen cabinet. Compound dilution master plate: In a 96-well V-bottom plate (Axygen- WIPP02280), reference compound Ponatinib or test compound concentrations were added, starting from 5 mM (5 microliters of 10 mM compound solution plus 5 microliters DMSO) with 3-fold serial dilutions for a total of 8 concentration points. […] 20 microliters of diluted compound was transferred from the intermediate plate to the cell plate. The cell plate was then incubated at 37°C and 5% CO2 for 1 hour. […] It was gently shaken for 30 seconds, and the absorbance was measured within 30 minutes using a SpectraMax® 340 PC 384 Absorbance Microplate Reader, reading the optical density value at 450 nm. […]
# All other values are expressed as a percentage of these controls (inhibition rate). […]
# [4] = target: T4, VEGFR2 (Homo sapiens, UniProt P35968); experiment: Kinase inhibitory activity, Mobility Shift Assay (VEGFR2); type: biochemical
# T4 construct: purchased Carna 08-191
# Summary of the method: (§5)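 Each kinase pre-incubated 10 min at room temperature, then FAM-labelled peptide with MgCl2 and ATP added; reaction at 28 °C for kinase-dependent times before stop. Substrate conversion read by mobility shift; IC50 from a four-parameter fit of % inhibition against log concentration.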
# [5] = target: T5, EGFR (Homo sapiens, UniProt P00533); experiment: Kinase inhibitory activity, Mobility Shift Assay (EGFR); type: biochemical
# T5 construct: purchased Carna 08-115
# Summary of the method: as §5
# [6] = Ophthalmic formulations based on polyethylene glycol series vehicles: composition and state (Example 7); type: physicochemical
# Summary of the method: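 Compound was dissolved, or nearly dissolved, in PEG 400 by sonication (heated to 50 °C if needed), then mixed into Tris-HCl buffer containing hydroxypropyl-β-cyclodextrin, poloxamer 188 and gellan gum or another viscosity modifier. Physical state was scored visually as solution, near-clear solution, suspension or gel.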
# [7] = Table 15: 10 mg/mL, Polyethylene glycol 400 10, Hydroxypropyl-β-cyclodextrin 10, Gellan Gum Gelrite 0.3, Poloxamer 188 1, Tris solution and Citric acid
# [8] = Table 16: 2 mg/mL, Polyethylene Glycol 400 5, Poloxamer 188 1, Hydroxypropyl-β-cyclodextrin 6, Gellan Gum Gelrite 0.15, Tris-HCl Buffer (pH 6.8) 25mM
# T1 sequence (P17948 27-1338): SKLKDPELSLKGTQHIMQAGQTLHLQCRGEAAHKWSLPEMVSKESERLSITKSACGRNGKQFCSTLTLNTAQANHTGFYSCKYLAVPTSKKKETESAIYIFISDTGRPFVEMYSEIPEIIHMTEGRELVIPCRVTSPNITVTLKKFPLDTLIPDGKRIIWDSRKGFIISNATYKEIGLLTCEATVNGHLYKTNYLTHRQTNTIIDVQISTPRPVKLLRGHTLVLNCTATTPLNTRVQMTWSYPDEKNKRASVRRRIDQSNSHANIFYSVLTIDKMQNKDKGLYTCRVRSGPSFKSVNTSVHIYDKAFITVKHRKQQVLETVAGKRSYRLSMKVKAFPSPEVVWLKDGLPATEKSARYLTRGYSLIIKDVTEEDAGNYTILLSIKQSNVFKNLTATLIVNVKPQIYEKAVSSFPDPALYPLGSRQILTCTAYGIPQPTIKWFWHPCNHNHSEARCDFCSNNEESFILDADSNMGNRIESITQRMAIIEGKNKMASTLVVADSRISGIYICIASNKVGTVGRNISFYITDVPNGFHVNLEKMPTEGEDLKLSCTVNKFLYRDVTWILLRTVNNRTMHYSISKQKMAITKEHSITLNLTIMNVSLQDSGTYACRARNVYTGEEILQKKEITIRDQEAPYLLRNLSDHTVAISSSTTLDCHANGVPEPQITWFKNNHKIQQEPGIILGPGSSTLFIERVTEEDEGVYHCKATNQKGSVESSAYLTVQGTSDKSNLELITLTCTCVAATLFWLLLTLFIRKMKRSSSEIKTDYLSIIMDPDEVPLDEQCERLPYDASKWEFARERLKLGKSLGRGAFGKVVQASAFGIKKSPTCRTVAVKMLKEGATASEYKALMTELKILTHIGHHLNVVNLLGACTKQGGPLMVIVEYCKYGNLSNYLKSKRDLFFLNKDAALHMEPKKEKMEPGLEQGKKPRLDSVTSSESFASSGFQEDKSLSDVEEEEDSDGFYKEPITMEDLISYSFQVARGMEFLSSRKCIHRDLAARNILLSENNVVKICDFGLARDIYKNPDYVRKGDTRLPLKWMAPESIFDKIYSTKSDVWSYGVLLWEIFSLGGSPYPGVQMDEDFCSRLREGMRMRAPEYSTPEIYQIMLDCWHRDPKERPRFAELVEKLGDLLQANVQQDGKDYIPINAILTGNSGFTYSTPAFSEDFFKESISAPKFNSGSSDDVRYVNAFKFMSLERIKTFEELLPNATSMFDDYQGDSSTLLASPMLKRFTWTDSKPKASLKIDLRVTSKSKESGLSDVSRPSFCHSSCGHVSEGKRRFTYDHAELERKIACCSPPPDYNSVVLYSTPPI
# T5 sequence (P00533 25-1210): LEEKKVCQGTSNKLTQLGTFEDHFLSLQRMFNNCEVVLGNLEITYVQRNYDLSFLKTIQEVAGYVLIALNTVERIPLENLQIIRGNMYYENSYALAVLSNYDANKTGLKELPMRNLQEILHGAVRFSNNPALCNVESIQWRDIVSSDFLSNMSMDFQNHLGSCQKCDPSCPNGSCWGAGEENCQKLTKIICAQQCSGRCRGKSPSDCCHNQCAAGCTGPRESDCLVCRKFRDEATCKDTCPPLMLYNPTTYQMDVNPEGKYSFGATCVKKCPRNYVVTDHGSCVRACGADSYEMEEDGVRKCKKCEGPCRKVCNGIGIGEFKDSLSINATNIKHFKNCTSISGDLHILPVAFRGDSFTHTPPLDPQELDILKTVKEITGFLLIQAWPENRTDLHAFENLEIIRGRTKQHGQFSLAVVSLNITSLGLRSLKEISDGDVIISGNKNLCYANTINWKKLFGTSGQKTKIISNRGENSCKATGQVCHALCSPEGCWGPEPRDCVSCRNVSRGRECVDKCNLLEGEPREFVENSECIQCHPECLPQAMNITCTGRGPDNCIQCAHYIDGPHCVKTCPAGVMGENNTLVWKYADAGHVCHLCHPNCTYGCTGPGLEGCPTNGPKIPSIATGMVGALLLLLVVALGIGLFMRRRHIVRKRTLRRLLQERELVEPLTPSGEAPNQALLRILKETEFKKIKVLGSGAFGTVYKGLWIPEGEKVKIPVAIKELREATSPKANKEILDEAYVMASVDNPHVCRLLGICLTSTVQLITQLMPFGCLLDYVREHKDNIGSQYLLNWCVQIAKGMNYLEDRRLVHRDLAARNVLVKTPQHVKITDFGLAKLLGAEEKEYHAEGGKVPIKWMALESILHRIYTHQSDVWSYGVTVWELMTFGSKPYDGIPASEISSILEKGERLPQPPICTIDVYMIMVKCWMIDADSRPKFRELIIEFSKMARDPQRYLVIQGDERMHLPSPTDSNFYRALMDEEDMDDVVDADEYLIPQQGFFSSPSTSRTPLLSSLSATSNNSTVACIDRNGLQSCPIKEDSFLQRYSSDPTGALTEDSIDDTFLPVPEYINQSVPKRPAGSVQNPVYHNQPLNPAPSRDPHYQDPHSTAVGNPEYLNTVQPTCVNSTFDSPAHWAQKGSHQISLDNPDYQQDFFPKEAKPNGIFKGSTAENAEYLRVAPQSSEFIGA
# T2 sequence (P35916 25-1363): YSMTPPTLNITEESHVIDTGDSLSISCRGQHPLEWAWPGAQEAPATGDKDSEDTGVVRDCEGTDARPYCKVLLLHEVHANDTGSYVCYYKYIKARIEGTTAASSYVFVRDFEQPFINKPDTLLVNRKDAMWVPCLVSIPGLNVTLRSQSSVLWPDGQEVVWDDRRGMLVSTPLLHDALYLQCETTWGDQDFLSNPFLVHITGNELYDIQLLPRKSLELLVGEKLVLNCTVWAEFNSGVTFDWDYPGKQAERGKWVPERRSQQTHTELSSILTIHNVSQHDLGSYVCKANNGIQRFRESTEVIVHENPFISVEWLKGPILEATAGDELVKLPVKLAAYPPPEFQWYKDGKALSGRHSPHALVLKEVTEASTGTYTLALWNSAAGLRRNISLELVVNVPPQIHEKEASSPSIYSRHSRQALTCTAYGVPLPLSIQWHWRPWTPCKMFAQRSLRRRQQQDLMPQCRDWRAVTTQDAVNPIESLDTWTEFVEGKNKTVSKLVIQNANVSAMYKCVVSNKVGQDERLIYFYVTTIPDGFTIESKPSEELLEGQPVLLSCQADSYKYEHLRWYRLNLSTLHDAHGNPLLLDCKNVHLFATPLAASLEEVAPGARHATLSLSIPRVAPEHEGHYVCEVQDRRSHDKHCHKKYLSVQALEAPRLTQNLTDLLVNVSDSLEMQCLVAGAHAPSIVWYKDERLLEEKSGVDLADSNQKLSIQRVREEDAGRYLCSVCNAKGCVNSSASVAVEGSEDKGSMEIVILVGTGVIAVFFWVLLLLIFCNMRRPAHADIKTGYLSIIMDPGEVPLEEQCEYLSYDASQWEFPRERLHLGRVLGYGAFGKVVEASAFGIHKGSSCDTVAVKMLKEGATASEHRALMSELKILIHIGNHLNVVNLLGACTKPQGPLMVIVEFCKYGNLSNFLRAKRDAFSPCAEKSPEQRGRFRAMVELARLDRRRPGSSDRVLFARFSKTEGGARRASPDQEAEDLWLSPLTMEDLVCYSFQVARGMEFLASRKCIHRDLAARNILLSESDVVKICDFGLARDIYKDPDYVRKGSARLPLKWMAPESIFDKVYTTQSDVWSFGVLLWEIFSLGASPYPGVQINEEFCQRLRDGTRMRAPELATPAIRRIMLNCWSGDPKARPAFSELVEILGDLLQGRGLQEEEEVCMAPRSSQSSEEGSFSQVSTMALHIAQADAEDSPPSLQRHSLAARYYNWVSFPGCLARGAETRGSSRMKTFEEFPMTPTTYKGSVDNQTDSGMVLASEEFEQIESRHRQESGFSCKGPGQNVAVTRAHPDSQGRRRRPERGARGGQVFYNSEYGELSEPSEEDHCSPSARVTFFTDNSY
SMILES,IC50 [1] [nM],IC50 [2] [nM],IC50 [3] [nM],IC50 [4] [nM],IC50 [5] [nM],"State Description: pH [6, 7]","State Description: state [6, 7]","Osmolality (mOsm/kg) [6, 8] [mOsm/kg]","State Description: pH [6, 8]","State Description: state [6, 8]"
"O=C(NC1CC1)c1cccc(F)c1Sc1ccc2c(/C=C/c3cnn(CCCN4CCCC4)c3)n[nH]c2c1 [Compound I-44, N-cyclopropyl-3-fluoro-2-({3-[(E)-2-{1-[3-(pyrrolidin-1-yl)propyl]-1H-pyrazol-4-yl}ethenyl]-1H-indazol-6-yl}sulfanyl)benzamide]",1 to 10,10 to 100,1 to 5,1 to 10,6000 to 60000,–,–,–,–,–
"CCNC(=O)c1cc(F)ccc1Sc1ccc2c(/C=C/c3ccc(CN4CCCC4)cn3)n[nH]c2c1 [Compound I-97, N-ethyl-5-fluoro-2-({3-[(E)-2-{5-[(pyrrolidin-1-yl)methyl]pyridin-2-yl}ethenyl]-1H-indazol-6-yl}sulfanyl)benzamide]",–,–,–,–,–,~5.5,gel,~300,~7,solution
